How the values were obtained:
Assay type in all cases: cell-based
[1] = system: Pseudomonas aeruginosa (ATCC 15442); assay: Microbial efficacy (% bacteria killed) at different TOC loading against Pseudomonas aeruginosa (Example 60)
Experimental: Pseudomonas aeruginosa (ATCC 15442) […]
2) 1 ml of each sample was inoculated on R2A agar (pour plate method). The result stands for the bacteria count at zero time. […]
(§1) 4) After 30 min. of shaking (100 rpm), 1 ml of each sample was transferred to a tube filled with 9 ml of the neutralization solution. An aliquot of 1 ml was taken from this solution and added to another tube containing 9 ml of buffer solution. The solution was mixed under vortex. This operation was repeated for 4 more times.
(§2) 5) 1 ml from the two lowest dilutions was inoculated on a R2A agar (by the pour plate method).
(§3) 6) After the plates were incubated at 25° C. for 5-7 days, the bacteria count was recorded.
7) The above experiment was repeated with Pseudomonas aeruginosa ATCC 15442 (instead of using an inoculums from sludge), which is representative bacteria that form biofilms.
Microbial efficacy of different biocides against Pseudomonas aeruginosa (ATCC 15442) replacing the use activated sludge bacteria.

[2] = system: Inoculum of bacteria (Activated sludge taken from Domestic Waste Water treatment Plant—Haifa); assay: Microbial efficacy (% bacteria killed) at different TOC loading, activated sludge inoculum (Example 60); settings: 30 min, pH 7
Experimental: Inoculum of bacteria (Activated sludge taken from Domestic Waste Water treatment Plant—Haifa).
R2A agar for general counting.
Tryptone, in amounts 0.025, 0.119, and 0.239 g solid tryptone respectively, was weighed and dissolved in 1 liter of buffer.
Neutralization solution (NaHSO4). […]
1) 1 ml of inoculum was added to tryptone solutions (placed in 3 Erlenmeyers, 100 ml each, with different concentrations of TOC-0, 10 and 50 ppm).
2) 1 ml of each sample was inoculated on R2A agar (pour plate method). The result stands for the bacteria count at zero time.
3) For each of the tryptone concentrations (0, 10, 50 ppm TOC) an inoculum of bacteria (1 ml) and the appropriate biocide concentration were added.
as §1, §2, §3

[3] = system: Pseudomonas aeruginosa (ATCC 15442) entrapped in alginate gel beads; assay: Biocidal activity against simulated biofilm systems (alginate beads), Example 60
Experimental: The biofilm simulation was created by entrapping bacteria in alginate gel beads. […] Buffer phosphate at pH 7.2 was used to scrap off the bacteria from the agar plate and to create a suspension. The bacterial suspension was mixed with an equal volume of an aqueous 4% sodium alginate solution, to make a final 2% alginate solution. The alginate and bacterial slurry were placed in a 50 ml syringe attached to a gauge needle (22), connected to a compressed air tank, allowing the syringe to be pressurized. At 20 psig pressure a stream of small drops was forced out and dropped into a stirred solution of 50 mM CaCl2. The Ca^+2 hardened the alginate, and semi solid beads with entrapped bacterial cells were formed. The beads were allowed to stir in the CaCl2 solution for about 20 minutes, and then rinsed in a dilute 5 mM CaCl2 solution. Several flasks containing 100 beads each were incubated overnight at 35° C. on a rotating shaker in a buffer solution (at pH 7) with 5 mM addition of CaCl2 to maintain the beads structure. The resulting beads diameter is about 2 mm.
The neutralizer-citrate solution was placed in the refrigerator for 2 hours, than diluted and placed on R2A agar plates using pour plate technique. The plates were incubated at 35° C. for 24-48 hours and counted. The efficacy and toxicity of the neutralizer were checked as well as a control experiment without biocide addition. Four concentrations (0.5, 1, 2.5 and 5 ppm) were tested at four different contact times (5, 15, 30, and 60 min). […] In addition, the efficacy of bromourea from chlorourea and NaBr (1:0.5 molar ratio) was tested at the same concentrations (mentioned above) and after a long contact time of 24 hours (Table 23).

[4] = TOC 0 ppm, biocide 2.5 ppm as Cl2
[5] = TOC 0 ppm, biocide 5 ppm as Cl2
[6] = TOC 0 ppm, biocide 10 ppm as Cl2
[7] = TOC 10 ppm, biocide 2.5 ppm as Cl2
[8] = TOC 10 ppm, biocide 5 ppm as Cl2
[9] = TOC 10 ppm, biocide 10 ppm as Cl2
[10] = TOC 50 ppm, biocide 2.5 ppm as Cl2
[11] = TOC 50 ppm, biocide 5 ppm as Cl2
[12] = TOC 50 ppm, biocide 10 ppm as Cl2
[13] = TOC 100 ppm, biocide 2.5 ppm as Cl2
[14] = TOC 100 ppm, biocide 5 ppm as Cl2

NC(=O)NBr [bromourea]
% bacteria killed [1, 4]: 100%
% bacteria killed [1, 5]: 100%
% bacteria killed [1, 6]: 100%
% bacteria killed [1, 7]: 100%
% bacteria killed [1, 8]: 100%
% bacteria killed [1, 9]: 100%
% bacteria killed [1, 10]: 0%
% bacteria killed [1, 11]: 99.36%
% bacteria killed [1, 12]: 100%
% bacteria killed [1, 13]: 0%
% bacteria killed [1, 14]: 7.14%
% bacteria killed ([1]; biocide 10 ppm as Cl2): 100%
% bacteria killed [2, 4]: 99.14%
% bacteria killed [2, 5]: 98.59%
% bacteria killed [2, 6]: 99.88%
% bacteria killed [2, 7]: 95.48%
% bacteria killed [2, 8]: 99.64%
% bacteria killed [2, 9]: 99.89%
% bacteria killed [2, 10]: 7.34%
% bacteria killed [2, 11]: 91.16%
% bacteria killed [2, 12]: 97.69%

NC(=O)NCl [chlorourea]
survival of bacteria (CFU) ([3]; biocide 0.5 ppm as Cl2, contact time 0 (initial count)): 8.40 × 10^7 CFU
survival of bacteria (CFU) ([3]; biocide 0.5 ppm as Cl2, contact time 5 min): 5.90 × 10^6 CFU
survival of bacteria (CFU) ([3]; biocide 0.5 ppm as Cl2, contact time 15 min): 5.30 × 10^6 CFU
survival of bacteria (CFU) ([3]; biocide 0.5 ppm as Cl2, contact time 30 min): 5.60 × 10^6 CFU
survival of bacteria (CFU) ([3]; biocide 0.5 ppm as Cl2, contact time 60 min): 2.25 × 10^6 CFU
survival of bacteria (CFU) ([3]; biocide 1 ppm as Cl2, contact time 0 (initial count)): 8.40 × 10^7 CFU
survival of bacteria (CFU) ([3]; biocide 1 ppm as Cl2, contact time 5 min): 7.50 × 10^6 CFU
survival of bacteria (CFU) ([3]; biocide 1 ppm as Cl2, contact time 15 min): 7.20 × 10^6 CFU
survival of bacteria (CFU) ([3]; biocide 1 ppm as Cl2, contact time 30 min): 9.40 × 10^5 CFU
survival of bacteria (CFU) ([3]; biocide 1 ppm as Cl2, contact time 60 min): 9.13 × 10^2 CFU
survival of bacteria (CFU) ([3]; biocide 2.5 ppm as Cl2, contact time 0 (initial count)): 8.40 × 10^7 CFU
survival of bacteria (CFU) ([3]; biocide 2.5 ppm as Cl2, contact time 5 min): 7.80 × 10^6 CFU
survival of bacteria (CFU) ([3]; biocide 2.5 ppm as Cl2, contact time 15 min): 2.60 × 10^6 CFU
survival of bacteria (CFU) ([3]; biocide 2.5 ppm as Cl2, contact time 30 min): 2.21 × 10^3 CFU
survival of bacteria (CFU) ([3]; biocide 2.5 ppm as Cl2, contact time 60 min): 1.00 × 10^0 CFU
survival of bacteria (CFU) ([3]; biocide 5 ppm as Cl2, contact time 0 (initial count)): 8.40 × 10^7 CFU
survival of bacteria (CFU) ([3]; biocide 5 ppm as Cl2, contact time 5 min): 6.70 × 10^6 CFU
survival of bacteria (CFU) ([3]; biocide 5 ppm as Cl2, contact time 15 min): 6.50 × 10^4 CFU
survival of bacteria (CFU) ([3]; biocide 5 ppm as Cl2, contact time 30 min): 1.00 × 10^0 CFU
survival of bacteria (CFU) ([3]; biocide 5 ppm as Cl2, contact time 60 min): 1.00 × 10^0 CFU
% bacteria killed [1, 4]: 93.33%
% bacteria killed [1, 5]: 99.33%
% bacteria killed [1, 6]: 100%
% bacteria killed [1, 7]: 93.77%
% bacteria killed [1, 8]: 99.77%
% bacteria killed [1, 9]: 100%
% bacteria killed [1, 10]: 94.93%
% bacteria killed [1, 11]: 99.81%
% bacteria killed [1, 12]: 100%
% bacteria killed [1, 13]: 94.20%
% bacteria killed [1, 14]: 99.77%
% bacteria killed ([1]; biocide 10 ppm as Cl2): 100%
% bacteria killed [2, 4]: 56.09%
% bacteria killed [2, 5]: 75.17%
% bacteria killed [2, 6]: 80.46%
% bacteria killed [2, 7]: 67.59%
% bacteria killed [2, 8]: 72.64%
% bacteria killed [2, 9]: 85.06%
% bacteria killed [2, 10]: 64.37%
% bacteria killed [2, 11]: 72.41%
% bacteria killed [2, 12]: 78.85%

Reference: patent US9149041B2, “Stabilized and activated bromine solutions as a biocide and as an antifouling agent” (Bromine Compounds Ltd., priority 2009, dated 2015)
